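Five compound concentrations were applied to cells in 96-well plates for 48 hours; endpoints were derived by simple linear interpolation of the resulting dose-response curve. GI50 marks 50% less growth.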 Activity calls are given as the source filed them. Rule as the data show it: active = GI50 up to about 1.1 µM and inactive = higher.
Legend:
Assay in all cases: NCI anticancer screen, dose series, 48 h
A498 = test system: A498
A549 = test system: A549
ACHN = test system: ACHN
CAKI-1 = test system: CAKI-1
CCRF-CEM = test system: CCRF-CEM
COLO 205 = test system: COLO 205
DLD-1 = test system: DLD-1
DMS-114 = test system: DMS-114
HCC 2998 = test system: HCC 2998
HCT-116 = test system: HCT-116
HCT-15 = test system: HCT-15
HL-60 = test system: HL-60
HOP-62 = test system: HOP-62
HOP-92 = test system: HOP-92
HT-29 = test system: HT-29
IGROV-1 = test system: IGROV-1
K562 = test system: K562
KM-20L2 = test system: KM-20L2
KM12 = test system: KM12
M14 = test system: M14
M19-MEL = test system: M19-MEL
MOLT-4 = test system: MOLT-4
Malme-3M = test system: Malme-3M
NCI-H226 = test system: NCI-H226
NCI-H23 = test system: NCI-H23
NCI-H460 = test system: NCI-H460
OVCAR-3 = test system: OVCAR-3
OVCAR-4 = test system: OVCAR-4
OVCAR-5 = test system: OVCAR-5
OVCAR-8 = test system: OVCAR-8
RPMI-8226 = test system: RPMI-8226
RXF 393 = test system: RXF 393
SF-268 = test system: SF-268
SF-295 = test system: SF-295
SF-539 = test system: SF-539
SK-MEL-28 = test system: SK-MEL-28
SK-MEL-2 = test system: SK-MEL-2
SK-MEL-5 = test system: SK-MEL-5
SK-OV-3 = test system: SK-OV-3
SN12C = test system: SN12C
SNB-19 = test system: SNB-19
SNB-75 = test system: SNB-75
SNB-78 = test system: SNB-78
TK-10 = test system: TK-10
U-251 = test system: U-251
UACC-257 = test system: UACC-257
UACC-62 = test system: UACC-62
UO-31 = test system: UO-31
XF498 = test system: XF498
786-0 = test system: 786-0
DMS-273 = test system: DMS-273
EKVX = test system: EKVX
LOX IMVI = test system: LOX IMVI
LXFL 529 = test system: LXFL 529
NCI-H522 = test system: NCI-H522
SR = test system: SR
SW-620 = test system: SW-620

In the case of `Cc1cc(C)nc(NS(=O)(=O)c2ccc(Nc3c4ccccc4nc4c(C(=O)N5CCN(CCOS(C)(=O)=O)CC5)cccc34)cc2)n1`, the GI50 (A498) is reported as > 100 µM (inactive), the GI50 (A549) is reported as > 100 µM (inactive) and the GI50 (ACHN) is reported as > 100 µM (inactive). For the same compound, the GI50 (CAKI-1) was > 100 µM (inactive), the GI50 (CCRF-CEM) was 72.9 µM (inactive) and the GI50 (COLO 205) was > 100 µM (inactive). The GI50 (DLD-1) was > 100 µM (inactive), the GI50 (DMS-114) was 99.1 µM (inactive) and the GI50 (HCC 2998) was > 100 µM (inactive). The GI50 (HCT-116) was > 100 µM (inactive), the GI50 (HCT-15) was greater than 100 µM and the GI50 (HL-60) was > 100 µM (inactive). The GI50 (HOP-62) was > 100 µM (inactive), the GI50 (HOP-92) was > 100 µM (inactive) and the GI50 (HT-29) was > 100 µM (inactive). For the same compound, the GI50 (IGROV-1) was > 100 µM (inactive), the GI50 (K562) was 53.2 µM (inactive) and the GI50 (KM-20L2) was > 100 µM (inactive). The GI50 (KM12) was > 100 µM (inactive), the GI50 (M14) was > 100 µM (inactive) and the GI50 (M19-MEL) was > 100 µM (inactive). For the same compound, the GI50 (MOLT-4) was 60.3 µM (inactive), the GI50 (Malme-3M) was > 100 µM (inactive) and the GI50 (NCI-H226) was > 100 µM (inactive). The GI50 (NCI-H23) was > 100 µM (inactive), the GI50 (NCI-H460) was 84.9 µM (inactive) and the GI50 (OVCAR-3) was 96.4 µM (inactive). For the same compound, the GI50 (OVCAR-4) was > 100 µM (inactive), the GI50 (OVCAR-5) was > 100 µM (inactive) and the GI50 (OVCAR-8) was > 100 µM (inactive). For the same compound, the GI50 (RPMI-8226) was > 100 µM (inactive), the GI50 (RXF 393) was > 100 µM (inactive) and the GI50 (SF-268) was > 100 µM (inactive). The GI50 (SF-295) was > 100 µM (inactive), the GI50 (SF-539) was > 100 µM (inactive) and the GI50 (SK-MEL-28) was > 100 µM (inactive). The GI50 (SK-MEL-2) was > 100 µM (inactive), the GI50 (SK-MEL-5) was > 100 µM (inactive) and the GI50 (SK-OV-3) was > 100 µM (inactive). For the same compound, the GI50 (SN12C) was > 100 µM (inactive), the GI50 (SNB-19) was > 100 µM (inactive) and the GI50 (SNB-75) was 49.9 µM (inactive). The GI50 (SNB-78) was > 100 µM (inactive), the GI50 (TK-10) was > 100 µM (inactive) and the GI50 (U-251) was 67 µM (inactive). The GI50 (UACC-257) was > 100 µM (inactive), the GI50 (UACC-62) was > 100 µM (inactive) and the GI50 (UO-31) was > 100 µM (inactive). For the same compound, the GI50 (XF498) was > 100 µM (inactive).
In the case of `COC(=O)C(CCC#N)(CCC#N)C(=O)OC`, the GI50 (786-0) is reported as > 100 µM (inactive), the GI50 (A549) is reported as > 100 µM (inactive) and the GI50 (ACHN) is reported as > 100 µM (inactive). For the same compound, the GI50 (CCRF-CEM) was > 100 µM (inactive), the GI50 (COLO 205) was > 100 µM (inactive) and the GI50 (DMS-114) was > 100 µM (inactive). For the same compound, the GI50 (DMS-273) was > 100 µM (inactive), the GI50 (EKVX) was > 100 µM (inactive) and the GI50 (HCC 2998) was > 100 µM (inactive). For the same compound, the GI50 (HCT-116) was > 100 µM (inactive), the GI50 (HCT-15) was greater than 100 µM and the GI50 (HL-60) was > 100 µM (inactive). For the same compound, the GI50 (HOP-62) was > 100 µM (inactive), the GI50 (HT-29) was > 100 µM (inactive) and the GI50 (IGROV-1) was > 100 µM (inactive). For the same compound, the GI50 (K562) was > 100 µM (inactive), the GI50 (KM-20L2) was > 100 µM (inactive) and the GI50 (KM12) was > 100 µM (inactive). The GI50 (LOX IMVI) was > 100 µM (inactive), the GI50 (LXFL 529) was > 100 µM (inactive) and the GI50 (M14) was > 100 µM (inactive). For the same compound, the GI50 (M19-MEL) was > 100 µM (inactive), the GI50 (MOLT-4) was > 100 µM (inactive) and the GI50 (Malme-3M) was > 100 µM (inactive). For the same compound, the GI50 (NCI-H226) was > 100 µM (inactive), the GI50 (NCI-H23) was > 100 µM (inactive) and the GI50 (NCI-H460) was > 100 µM (inactive). For the same compound, the GI50 (NCI-H522) was > 100 µM (inactive), the GI50 (OVCAR-3) was > 100 µM (inactive) and the GI50 (OVCAR-8) was > 100 µM (inactive). For the same compound, the GI50 (RPMI-8226) was > 100 µM (inactive), the GI50 (SF-268) was > 100 µM (inactive) and the GI50 (SF-295) was > 100 µM (inactive). For the same compound, the GI50 (SF-539) was > 100 µM (inactive), the GI50 (SK-MEL-28) was > 100 µM (inactive) and the GI50 (SK-MEL-5) was > 100 µM (inactive). For the same compound, the GI50 (SK-OV-3) was > 100 µM (inactive), the GI50 (SN12C) was > 100 µM (inactive) and the GI50 (SNB-19) was > 100 µM (inactive). For the same compound, the GI50 (SR) was > 100 µM (inactive), the GI50 (SW-620) was > 100 µM (inactive) and the GI50 (U-251) was > 100 µM (inactive). The GI50 (UACC-257) was > 100 µM (inactive), the GI50 (UACC-62) was > 100 µM (inactive) and the GI50 (UO-31) was > 100 µM (inactive). For the same compound, the GI50 (XF498) was > 100 µM (inactive).
With `Cc1cc2c(cc1O)[nH]c1cc3c(cc12)C=CC(C)(C)O3` the GI50 (COLO 205) was > 25 µM (inactive), the GI50 (DMS-114) was 10.6 µM (inactive) and the GI50 (K562) was > 25 µM (inactive). For the same compound, the GI50 (OVCAR-3) was 7.28 µM (inactive), the GI50 (OVCAR-4) was 10.5 µM (inactive) and the GI50 (OVCAR-5) was 17.7 µM (inactive). The GI50 (OVCAR-8) was 4.55 µM (inactive), the GI50 (RPMI-8226) was 9.1 µM (inactive) and the GI50 (SK-MEL-2) was > 25 µM (inactive). For the same compound, the GI50 (SK-OV-3) was > 25 µM (inactive), the GI50 (SNB-19) was > 25 µM (inactive) and the GI50 (SNB-78) was 11.3 µM (inactive). For the same compound, the GI50 (TK-10) was > 25 µM (inactive) and the GI50 (XF498) was > 25 µM (inactive).

From ChEMBL document CHEMBL1201862, “PubChem BioAssay data set” (2004)
